Experimental data from patent US12263248B2, “Compounds and compositions for intracellular delivery of therapeutic agents” (ModernaTX, Inc., priority 2018, dated 2025).
Marks after values point to notes of the source that are not given here.

What was measured:
[1] = Apparent (surface) pKa of the LNP formulation (TNS assay); format: physicochemical; details: for surface pKa: LNP, Example 26
Procedure, shortened: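 LNP (0.04 mg/mL mRNA) mixed with TNS reagent in 21 buffers spanning about pH 3-12, in triplicate; fluorescence plotted against pH as sigmoidal curve. Apparent pKa taken as […] curve inflection point; validated in 1× PBS and 20 mM Tris w/8% sucrose.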

luciferase (Luc) mRNA = assay: Luc expression (total flux) after intramuscular administration; format: in vivo, mice; details: for Total flux, 0.001 mpk Dose / Total flux, 0.01 mpk Dose: 6 hours after intramuscular administration, Luc mRNA and H10 mRNA; for AUC (p/s * h) / Lipid/MC3 AUC: Table 3H, Luc; for AUC (p/s * h) / Lipid/MC3 AUC / Novel lipid/MC3 expression ratio, 6 hr. time point, i.m. Luc / Fold increase in Luc expression relative to MC3, Intramuscular (0.001 mpk dose) / Fold increase in Luc expression relative to MC3, Intramuscular (0.01 mpk dose): intramuscular; for Novel lipid/MC3 expression ratio, 6 hr. time point, i.m. Luc: relative to MC3 formulation
Procedure, shortened: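 Mice given a single intramuscular dose of lipid nanoparticle formulations carrying modified Luc mRNA, alone or with H10 mRNA, at 0.001 or 0.01 mpk total. Luciferase expression recorded as total flux.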

luciferase mRNA = assay: Luciferase expression after subcutaneous administration to mice; format: in vivo, female CD-1 mice; details: for Novel lipid/MC3 expression ratio, s.c. Luc 0.5 mpk (AUC) / Lipid/MC3 AUC ratio / AUC (luciferase expression): 0.5 mpk; for Lipid/MC3 AUC ratio: luciferase; for AUC (luciferase expression): whole body BLI; for Novel lipid/MC3 ratio, s.c. Luc 6 hr.: relative to MC3, Table 3G
Method: The effect of the lipids of the disclosure on protein expression upon subcutaneous administration was studied. Formulations containing lipids of the disclosure and an mRNA expressing luciferase or hEPO were administered subcutaneously to female CD-1 mice at 0.5 mpk. Expression levels were obtained via whole body luminescent imaging (BLI) at 3, 6 and 24 hours after injection and expression levels in liver, spleen and at the injection site were evaluated ex vivo after 24 hours. […] See also Tables 35 and 36, and FIGS. 19 and 27.
Table 35 summarizes the luciferase expression levels using various nanoparticle compositions of the disclosure, and the luciferase expression levels using various nanoparticle compositions of the disclosure as compared to the luciferase expression level using an MC3 formulation after subcutaneous administration, as described above.

hEPO mRNA = assay: hEPO expression after intravenous administration to rats; format: in vivo, rat; details: for hEPO expression: rat; for Lipid/MC3 hEPO conc. ratio 0.2 mpk / Lipid/MC3 hEPO conc. ratio 2 mpk: rats
Procedure, shortened: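 Rats dosed intravenously once with nanoparticle composition, 0.2 or 2.0 mpk, formulated by the standard MC3 method. Tail-vein blood sampled at 6 h or at time points from 0.25 to 48 h. hEPO measured by ELISA.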

[2] = lipid nanoparticle, ±SD within one assay run (Table 37)

## CCCCCCCCCOC(=O)CCCCCCCN(CCO)CCCCCCCC(=O)OCCCCCCCCC [Compound 138, Dinonyl 8,8′-((2-hydroxyethyl)azanediyl)dioctanoate]
[1]
  surface pKa: > 7
[1]; Table 1A
  pKa: 7.39
[1]; [2]
  pKa: 7.39 ± 0.07
Luciferase (Luc) mRNA
  Total flux, 0.001 mpk Dose: 2.72E+05 p/s
  Total flux, 0.01 mpk Dose: 1.19E+06 p/s

## CCCCCCCCC(CC)OC(=O)CCCCCN(CCO)CCCCCCCC(=O)OC(CCCCCCCC)CCCCCCCC (centres unmarked) [Compound 75, Heptadecan-9-yl 8-((2-hydroxyethyl)(6-oxo-6-(undecan-3-yloxy)hexyl)amino)octanoate]
Luciferase mRNA; relative to MC3
  Novel lipid/MC3 expression ratio, s.c. Luc 0.5 mpk (AUC): (AUC: 3.05)
Luciferase mRNA
  Lipid/MC3 AUC ratio: 3.05
  AUC (luciferase expression): 5.2262E+10 (p/s) * h
  Novel lipid/MC3 ratio, s.c. Luc 6 hr.: 3.08
[1]; Table 1A
  pKa: 6.67
Luciferase (Luc) mRNA
  AUC (p/s * h): 1.29E+09 p/s * h
  Lipid/MC3 AUC: 2.20
  Novel lipid/MC3 expression ratio, 6 hr. time point, i.m. Luc: 1.22

## CCCCCCCCC(CCCCCCCC)OC(=O)CCCCCCCN(CCO)CCCCCCCC(=O)OC(CCCCCCCC)CCCCCCCC [Compound 29, Di(heptadecan-9-yl) 8,8′-((2-hydroxyethyl)azanediyl)dioctanoate]
[1]
  surface pKa: 6.00
[1]; Table 1A
  pKa: 6.00
[1]; Table 6
  pKa: 6.00
[1]; [2]
  pKa: 6.00 ± 0.24
Luciferase (Luc) mRNA
  Total flux, 0.001 mpk Dose: 7.64E+05 p/s
  Total flux, 0.01 mpk Dose: 1.12E+07 p/s
  Fold increase in Luc expression relative to MC3, Intramuscular (0.001 mpk dose): 0.11
  Fold increase in Luc expression relative to MC3, Intramuscular (0.01 mpk dose): 0.25

## CCCCCCCC/C=C\COC(=O)CCCCCN(CCO)CCCCCC(=O)OC/C=C\CCCCCCCC [Compound 140, Di((Z)-undec-2-en-1-yl) 6,6′-((2-hydroxyethyl)azanediyl)dihexanoate]
[1]; Table 1A
  pKa: 7.71
Luciferase (Luc) mRNA
  Total flux, 0.001 mpk Dose: 2.03E+05 p/s
  Total flux, 0.01 mpk Dose: 6.09E+05 p/s

## CCCCCCCCC(CCC)OC(=O)CCCCCCCN(CCO)CCCCCCCC(=O)OC(CCCCCCCC)CCCCCCCC (centres unmarked) [Compound 50, dodecan-4-yl 8-((8-(heptadecan-9-yloxy)-8-oxooctyl)(2-hydroxyethyl)amino)octanoate]
[1]; Table 1A
  pKa: 6.42
Luciferase (Luc) mRNA
  Total flux, 0.001 mpk Dose: 6.56E+05 p/s
  Total flux, 0.01 mpk Dose: 1.13E+07 p/s
hEPO mRNA; intravenous, 0.2 mpk, 6 hours
  hEPO expression: 2.62e+06 pg/mL
  Lipid/MC3 hEPO conc. ratio 0.2 mpk: 3.41
hEPO mRNA; intravenous, 2 mpk, 6 hours
  hEPO expression: 2.81e+07 pg/mL
  Lipid/MC3 hEPO conc. ratio 2 mpk: 3.03

## CCCCCCCCC(CC)OC(=O)CCCN(CCO)CCCCCCCC(=O)OC(CCCCCCCC)CCCCCCCC (centres unmarked) [Compound 72, Heptadecan-9-yl 8-((2-hydroxyethyl)(4-oxo-4-(undecan-3-yloxy)butyl)amino)octanoate]
Luciferase mRNA; relative to MC3
  Novel lipid/MC3 expression ratio, s.c. Luc 0.5 mpk (AUC): (AUC: 2.01)
Luciferase mRNA
  Lipid/MC3 AUC ratio: 2.01
  AUC (luciferase expression): 3.4417E+10 (p/s) * h
  Novel lipid/MC3 ratio, s.c. Luc 6 hr.: 2.18
[1]; Table 1A
  pKa: 6.29
Luciferase (Luc) mRNA
  AUC (p/s * h): 6.48E+08 p/s * h
  Lipid/MC3 AUC: 1.10
  Novel lipid/MC3 expression ratio, 6 hr. time point, i.m. Luc: 1.03

## CCCCCCCCCOC(=O)CCCCCCCN(CCO)CCCCCC(=O)OC(CCCCCCCC)CCCCCCCC [Compound 27, Nonyl 8-((6-(heptadecan-9-yloxy)-6-oxohexyl)(2-hydroxyethyl)amino) octanoate]
Luciferase mRNA; 0.05 mpk, relative to MC3
  Novel lipid/MC3 expression ratio, 6 hr. time point, s.c. Luc 0.05 mpk: 14.45
[1]; Table 1A
  pKa: 6.78
Luciferase (Luc) mRNA
  Total flux, 0.001 mpk Dose: 2.55E+06 p/s
  Total flux, 0.01 mpk Dose: 3.17E+07 p/s

## CCCCCCCCCN(CCO)CCCCCCCC(=O)OC(CCCCCCCC)CCCCCCCC [Compound 3, Heptadecan-9-yl 8-((2-hydroxyethyl)(nonyl)amino)octanoate]
[1]; Table 1A
  pKa: 6.72
[1]; Table 6
  pKa: 6.72
Luciferase (Luc) mRNA
  Total flux, 0.001 mpk Dose: 3.58E+06 p/s
  Total flux, 0.01 mpk Dose: 4.95E+07 p/s
  Fold increase in Luc expression relative to MC3, Intramuscular (0.001 mpk dose): 0.51
  Fold increase in Luc expression relative to MC3, Intramuscular (0.01 mpk dose): 1.13
hEPO mRNA; 6 h, 2 mpk, i.v.
  hEPO expression: 1.74e+07 pg/mL
hEPO mRNA; intravenous, 0.2 mpk, 6 hours
  Lipid/MC3 hEPO conc. ratio 0.2 mpk: 2.41
hEPO mRNA; intravenous, 2 mpk, 6 hours
  Lipid/MC3 hEPO conc. ratio 2 mpk: 1.21

## CCCCCCCCCOC(=O)CCCCCCCN(CCO)CCCCCCCCCC(=O)OC(CCCCCC)CCCCCC [Compound 147, Tridecan-7-yl 10-((2-hydroxyethyl)(8-(nonyloxy)-8-oxooctyl)amino)decanoate]
[1]; Table 1A
  pKa: 6.66
hEPO mRNA; Table 19B
  AUC (hEPO): 7.28e+07 pg·h/mL
hEPO mRNA; Table 19B, relative to MC3
  Lipid/MC3 ([hEPO] ratio): 3.69
  Lipid/MC3 AUC: 3.94
hEPO mRNA; Table 19B, species, dose and time not given
  [hEPO]: 5.45e+06 pg/mL

## CCCCC/C=C\C/C=C\CCCCCCCCN(CCO)CCCCCCCC(=O)OC(CCCCCCCC)CCCCCCCC [Compound 6, Heptadecan-9-yl 8-((2-hydroxyethyl)((9Z,12Z)-octadeca-9,12-dien-1-yl)amino)octanoate]
[1]; Table 1A
  pKa: 6.32
[1]; [2]
  pKa: 6.32 ± 0.05
